Assay results: a melting point compilation (Tetko et al.; mined from patent text by program, amines drawn as free bases though some values may be those of a salt)

| Compound | melting point [°C] |
| --- | --- |
| C[C@@H]1Cc2ccsc2[C@H](C)N1CCNC(=O)c1ccc(NC(=O)C(C)(C)C)cc1 (relative stereo) | 133 |
| CSc1nnc(-c2ccc(F)cc2)c(-c2ccc(F)cc2)n1 | 132 to 135 |
| O=C(O)Cc1nc(-c2ccc(Cl)cc2)sc1Sc1ccccc1 | 191 to 193 |
| CCOC(=O)C(N=Nc1ccccc1C(=O)c1ccccn1)NC(=O)CCl (stereo not given) | 160 to 162 |
| Cn1cc(-c2cccc(N3Cc4cc(C(C)(C)C)ccc4C3=O)c2CO)nc(Nc2cnn(C3CC3)c2)c1=O | 218 to 219 |
| CN1C(=O)C(c2ccc(OC(F)F)cc2)(C2CCCCC2)N=C1N (stereo not given) | 178 to 180 |
| Cc1cc(-n2ccnc2)c2cccc(OCc3c(Cl)ccc(S(=O)(=O)N4CCC[C@H]4C(=O)NCC4CCN(Cc5ccncc5)CC4)c3Cl)c2n1 | 113 |
| CSc1c(CC(=O)O)ccc2c3ccccc3n(Cc3ccc(Cl)cc3)c12 | 176 to 178 |
| COc1cccc(S(=O)(=O)N(C)C)c1C#N | 121 to 128 |
| O=C(Cc1cccc2ccccc12)Nc1cc([C@H]2C[C@@H](NC(=O)CC3CC3)C2)[nH]n1 | 93.2 |
| COC(=S)c1sc(C)c(N)c1N | 95 to 97 |
| O=C(O)C1C2OCCC21Br (mixture of isomers) | 196 to 198 |
| Nc1ncnc2c1ncn2OCCOCP(=O)(O)O | 241 to 244 |
| O=C(O)c1ccc(O)c(C(O)C(Cl)Cl)c1 (stereo not given) | 214 to 215 |
| Cn1c(-c2ccc(Cl)c(S(N)(=O)=O)c2)csc1=Nc1ccccc1 | 168 to 171 |
| CC(=O)Nc1cc(Oc2ccc3c(C(=O)Nc4ccc(CN5CCNCC5)c(C(F)(F)F)c4)cccc3c2)ncn1 | 194 to 197 |
| O=c1[nH]c2cc(Br)c(F)c([N+](=O)[O-])c2[nH]c1=O | 316 to 321 |
| CCSc1nc(NC(C)=O)ccc1[N+](=O)[O-] | 168 |
| C=C(C)COc1ccc(C(=O)C=Cc2c(Cl)cccc2Cl)c2oc3ccccc3c(=O)c12 | 135 to 137 |
| CCOP(=O)(OCC)C(c1ccccc1)c1ccccc1C(F)(F)F (stereo not given) | 127 to 130 |
| CCOC(=O)Cc1cc(C)c(C(=O)c2ccc(Cl)cc2Cl)n1C | 90 to 92 |
| O=C1C(Cc2ccccc2)C(C(F)(F)F)=Nc2ccccc2N1Cc1ccccc1 (stereo not given) | 150 to 151 |
| CS(=O)(=O)N(c1cc2c(cc1Oc1ccccc1)C(C#N)CC2)S(C)(=O)=O (stereo not given) | 200 |
| CN1C(=O)N2C(=NC1(C)C)N(C(=O)NC1CCCCC1)c1ccccc12 | 114 to 116 |

| Compound | melting point [°C] |
| --- | --- |
| COC(=O)[C@H]1Cc2ccc(C)cc2C(=O)[C@H](C)S1 (relative stereo) | 99 to 100 |
| OC[C@@H](O)[C@@H](O)[C@H](O)[C@@H](O)CNC1CCCCC1 | 144 to 146 |
| Cc1cccc(-c2nc3ccc(OCCCN4CCCC4)cc3n2Cc2ccccc2)c1 | 120 |
| CCCCc1nc(SCC)c(C(=O)O)n1Cc1ccc(-c2ccccc2C(=O)O)cc1 | 156 |
| NC(=O)/C=C1\CCc2c(F)cc(F)cc21 | 178 to 180 |
| Cc1cccc(NC(=O)NC2N=C(c3ccccc3)c3ccccc3N(Cc3nccc4ccccc34)C2=O)c1 (racemic) | 218 to 221 |
| CCCCOCCOc1ccc(-c2ccc3c(c2)C=C(C(=O)Nc2ccc(C(O)c4cc(C)ccn4)cc2)CCN3C(=O)C(F)(F)F)cc1 (stereo not given) | 101 to 105 |
| O=C(Nc1cccc2c(N=P(c3ccccc3)(c3ccccc3)c3ccccc3)ccnc12)c1c(Cl)cccc1Cl | 276 to 281 |
| COC(=O)C1=Cc2cc(-c3ccc(N4CCOCC4)cc3)ccc2N(C(=O)OC)CC1 | 216 to 220 |
| CCCCCCCCCCCCCCCCCCNC(=O)c1ccccc1I | 94 to 96 |
| CSc1sc(C(N)=O)c2c1-c1nn(C)cc1CC2 | 285 to 286 |
| CCCCNC(=O)NS(=O)(=O)c1cc(C(F)(F)F)ccc1S(=O)(=O)N(C)C | 128 to 130 |
| O=c1[nH]c2ncc(-c3ccc(-n4ccnc4)cc3)nc2n1CC1CCCCC1 | 284 to 287 |
| CC1Cc2c(c3cccnc3n(-c3ccc(Cl)c(Cl)c3)c2=O)O1 (stereo not given) | 273 to 274 |
| CCOC(=O)N(C)N(C)C(=S)Nc1cc(Cl)cc(Cl)c1 | 147 to 149 |
| Cc1ccc(-c2nc3ccc(C(C)(C)CNC=O)cc3[nH]2)cc1 | 193 to 195 |
| N#CC1c2ccccc2Sc2ccccc21 | 103 to 105 |
| CC(=O)NNC(COCc1cc(C)cc(C)c1)C1c2ccccc2CCc2ccccc21 (stereo not given) | 109 to 111 |
| NC1=CC(=O)CC(c2ccsc2)C1 (stereo not given) | 142 to 143 |
| CN(CC#Cc1cc(CN2CCOCC2)cc2c(=O)c(C(=O)NCc3ccc(Cl)cc3)cn(C)c12)CC(O)CO (stereo not given) | 140 to 142 |
| Nc1ccc2oc(=O)c(N)cc2c1 | 183 to 186 |
| COc1ccc(-c2nn(Cc3ccc(OCc4nc(-c5ccccc5)oc4C)cc3)cc2CCC(=O)O)cc1 | 137 to 138 |
| Cn1ncc(C(=O)N2CC(F)C2)c1C(=O)Nc1ccn2nc(N3CCOCC3)nc2c1 | 247 to 250 |
| COc1ccnc(CCc2nc3cc(-c4ccc(S(=O)(=O)N5CCCN(C)CC5)cc4)cnc3[nH]2)c1 | 160 to 162 |

More lines, now with the values ahead:

| melting point [°C] | Compound |
| --- | --- |
| 191 to 192 | Cn1cnc(S(=O)(=O)NC(CN2CCOCC2)CN2CCOCC2)c1 |
| 110 to 112 | CN(CCCN=C(NC#N)NCCSCc1csc(NC(=N)N)n1)CCC(c1ccccc1)c1ccccn1 (stereo not given) |
| 164 to 166 | Cc1ccc(NCCCNc2ncc(Cc3ccc(C)nc3)c(=O)[nH]2)nc1 |
| 73 to 74 | COc1ccc(Br)c(C=O)c1 |
| 107 to 109 | O=C(Nc1ccccc1)OC1C=CC2COC1O2 (stereo not given) |
| 195 to 198 | O=C1NCCc2c(O)cccc21 |
| 125 to 127 | CN1c2cscc2CNc2ccccc21 |
| 206 to 208 | OCCc1cnc(Nc2n[nH]c3ccc(-c4ncccc4Cl)cc23)s1 |
| 205 to 208 | CCN(CC)c1cc(C)nc(-c2ccncc2)n1 |
| 209 to 211 | CN1CCC(c2c[nH]c3cnc(-n4cncn4)cc23)CC1 |
| 106 to 117 | Cc1ccc(C)c(S(=O)(=O)n2c(CCCC(=O)O)cc3nc(Cl)ccc32)c1 |
| 229 | C=C(C)n1cc(C(=O)O)c(=O)c2cc(F)c(Cl)cc21 |
| 215 to 225 | COc1cc2c(cc1OC)CN(CCc1ccc(NC(=O)c3cccc4c(=O)c5cccc(OC)c5[nH]c34)cc1)C2 |
| 136 to 138 | O=C(NCc1cccc([N+](=O)[O-])c1)c1ccccc1 |
| 152 to 153 | Cc1ccccc1NC(=O)CN1C[C@@H](C)N(S(=O)(=O)c2cccc(C#N)c2)[C@@H](C)C1 |
| 120 to 130 | O=C(/C=C/c1cccc(F)c1)N1CCN(C(=O)c2cc(C(F)(F)F)cc(C(F)(F)F)c2)[C@H](Cc2c[nH]c3ccccc23)C1 |
| 238 to 240 | CS(=O)(=O)c1ccc(Cl)cc1C1NC(=O)NC1=O (stereo not given) |
| 169 to 171 | Cc1cnn(-c2nc3ccccc3c(=O)[nH]2)c1 |
| 109 to 114 | O=c1c(OC(F)F)cn(-c2ccccc2F)nc1-c1ccnn1-c1ccccc1 |
| 205 to 206 | COc1ccc(-c2cc(=O)[nH]nc2-c2ccc(OC)c(F)c2)cc1F |
| 128 to 130 | Cc1cc(O)cc(C)c1-c1ccccc1 |
| 98 to 100 | N#Cc1ccccc1F |
